Assay [1] can be described thus: Inhibitory activity against chitin synthase from Saccharomyces cerevisiae.
For the next assay, the system named is Cryptococcus neoformans. The assay can be described thus: Inhibitory activity against chitin synthase from Cryptococcus neoformans at 128 ug/mL; No inhibition.
The target of assay [2] is Chitin synthase 1 (Candida albicans) (UniProt P23316). As to the kind of experiment: Inhibitory activity against chitin synthase from Candida albicans at 128 ug/mL; No inhibition.
Chain of Chitin synthase 1 (Candida albicans) (P23316 whole entry, looked up): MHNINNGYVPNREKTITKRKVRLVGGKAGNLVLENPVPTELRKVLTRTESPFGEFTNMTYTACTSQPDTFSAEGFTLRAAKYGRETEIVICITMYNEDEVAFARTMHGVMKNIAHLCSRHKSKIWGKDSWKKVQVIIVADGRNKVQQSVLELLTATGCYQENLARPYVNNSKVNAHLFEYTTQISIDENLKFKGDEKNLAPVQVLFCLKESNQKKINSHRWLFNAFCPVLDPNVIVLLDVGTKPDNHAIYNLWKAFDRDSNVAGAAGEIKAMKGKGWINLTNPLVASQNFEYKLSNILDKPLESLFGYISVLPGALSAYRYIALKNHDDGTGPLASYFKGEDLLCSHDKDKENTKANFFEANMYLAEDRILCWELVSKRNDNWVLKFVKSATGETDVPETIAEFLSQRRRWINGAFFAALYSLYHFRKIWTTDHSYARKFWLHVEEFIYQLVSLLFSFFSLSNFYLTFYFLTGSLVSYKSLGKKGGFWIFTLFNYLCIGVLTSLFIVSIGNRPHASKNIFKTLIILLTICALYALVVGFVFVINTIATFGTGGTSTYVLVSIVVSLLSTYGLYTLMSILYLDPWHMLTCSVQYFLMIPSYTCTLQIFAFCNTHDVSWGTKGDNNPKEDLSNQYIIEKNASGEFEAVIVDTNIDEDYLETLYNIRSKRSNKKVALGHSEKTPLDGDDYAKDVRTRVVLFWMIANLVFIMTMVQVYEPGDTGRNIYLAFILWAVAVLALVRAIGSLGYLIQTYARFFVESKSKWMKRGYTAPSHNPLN
For a further assay, the system named is Aspergillus fumigatus. As to the kind of experiment: Inhibitory activity against chitin synthase from Aspergillus fumigatus at 128 ug/mL; No inhibition.
The test system of the next assay is Microsporum canis. The assay can be described thus: Inhibitory activity against chitin synthase from Microsporum canis at 128 ug/mL; No inhibition.
The test system of assay [3] is trychophyton mentagrophytes. The assay can be described thus: Inhibitory activity against chitin synthase from Trichophyton mentagrophytes at 128 ug/mL; No inhibition.
Assay [4] in a line: Inhibitory activity against chitin synthase from Saccharomyces cerevisiae at a concentration up to 500 uM; No inhibition.

Active and inactive are the calls of the source. The calls are words filed in the database; no cut-off is given here.

Among the data in ChEMBL document CHEMBL1133221 (2000) are Ki and Activity values, retold here.

For orientation: Ki means the dissociation constant of the complex between target and ligand, obtained from inhibition or displacement. `C[C@@H]([C@H](N)C(=O)N[C@H](C(=O)O)[C@H]1O[C@@H](n2ccc(=O)[nH]c2=O)[C@H](O)[C@@H]1O)[C@H](O)c1ccc(O)cn1` [NIKKOMYCIN]: in assay [1], the affinity, expressed as Ki, was 600 nM. That is a sub-micromolar value.

In the case of `CCOP(=O)(OCC)C(F)(F)C1C(O)C(O)C(CO)N1CCNC1C(CO)OC(OC)C(NC(C)=O)C1O` (configuration not stated), the outcome (with Cryptococcus neoformans; in assay [2]; in the assay on Aspergillus fumigatus; with Microsporum canis; in assay [3]) was inactive. In assay [4], the Ki result is “Not Active”.
